Where a name gives a salt, the structure may show the parent alone.
Columns and labels:
Type in all cases: physicochemical
[1] = Thermogravimetric analysis (TGA) of TBR-760 salt forms; details: ramp 5.0° C. per minute from 25 to 400° C.
Procedure: Thermogravimetric analyses (TGA) were performed on all TBR-760 salt forms to evaluate thermal stability of each salt form. Studies were performed using a TGA-Q500 thermogravimetric analyzer (TA Instruments). The weight of each compound was measured while the temperature was increased at a ramp rate of 5.0° C. per minute from 25 to 400° C. […] The weight loss may be indicative of loss of adsorbed moisture, entrained solvent or volatile impurities. Decomposition of the compound appears to start at about 234° C. (sulfate salt), 245° C. (chloride salt), 252° C. (tosylate salt), and 255° C. (mesylate salt). For the acetate salt, a further ˜5% loss of weight between 110° C. and 200° C. was observed, indicating loss of volatile acetate ions over that temperature range (FIG. 8).

[2] = Photostability of TBR-760 salt forms (ICH Q1B, visible and UV light), appearance and UPLC purity; details: for Purity, UV-exposed / Purity, Control / Purity, Dark Ctrl-UV / Purity, Dark Crtl-Light / Purity, Light-exposed / degradation upon exposure to visible or UV light, in words: UPLC; for Purity, UV-exposed / Appearance, UV-exposed: UV 200 watt hours/square meter; for Purity, UV-exposed / Purity, Light-exposed / Appearance, UV-exposed / Appearance, Light-exposed: clear sealed vial; for Purity, Control / Appearance, Control: control in sealed amber vial at -20° C.; for Purity, Dark Ctrl-UV / Appearance, Dark Ctrl-UV: dark control in UV chamber; for Purity, Dark Crtl-Light / Appearance, Dark Crtl-Light: dark control in visible light chamber; for Appearance, Dark Ctrl-UV / Appearance, Dark Crtl-Light: amber vial wrapped in aluminum foil; for degradation upon exposure to visible or UV light, in words: visible and UV light
From the text: In order to evaluate the light sensitivity and stability of TBR-760 chimeric peptide salts, all five salt forms were exposed to ultraviolet (UV) and visible light according to International Council for Harmonisation of Technical Requirements for Pharmaceuticals for Human Use (ICH) guideline Q1B for photostability testing. In brief, a Caron 6540-1 photostability chamber unit with separate UV and light chambers was used for the studies. Visible light exposure was 1.2 million lux hours and UV exposure was 200 watt hours/square meter.
Samples were placed in clear, sealed vials and stored in the appropriate chamber alongside dark controls in amber colored vials wrapped in aluminum foil. Control samples were stored in sealed amber vials at −20° C. The appearance of exposed samples was examined visually before being analyzed via UPLC.

[3] = Solid state (thermolytic) stability of TBR-760 salt forms, open container, UPLC peak purity and appearance; details: for Purity, T = 2 wk / Purity, T = 4 wk / Purity, Control: UPLC peak purity; for Purity, Control / Appearance, Control: stored at -20° C.
Procedure: Each TBR-760 salt was further evaluated for thermolytic stability over time by setting up three different exposure conditions (25° C. at 60% relative humidity (RH); 40° C. at 75% RH; or 60° C. with open and closed container systems (open dish/closed dish). Approximately 50 mg of each salt form was weighed in a nitrogen-flushed glove box for use in the studies. All samples were stored at −20° C. in a good laboratory practice (GLP) freezer both before and after exposure to the indicated conditions.
The stability of each salt form was assessed by monitoring the post-exposure drug peak purity and by evaluating the post-exposure visual appearance of the salt. The samples were removed from the exposure conditions and allowed to equilibrate to ambient conditions for 15-20 mins. An appropriate amount of each sample was weighed for analysis and dissolved in diluent (deionized water containing 0.1% TFA) to obtain a stock concentration of 1 mg/mL. The stock solution was then diluted to 0.125 mg/mL in an HPLC vial using diluent and the samples were run on a Waters Acquity UPLC system using the parameters shown in Table 4.

[4] = visible light 1.2 million lux hours, listed as Sulphate
[5] = visible light 1.2 million lux hours
[6] = 25° C. at 60% RH, open container
[7] = 40° C. at 75% RH, open container

| SMILES | Appearance, Control [2] | Appearance, Dark Ctrl-UV [2] | Appearance, Dark Crtl-Light [2] | degradation upon exposure to visible or UV light, in words [2] | Appearance, T = 2 wk [3, 6] | Appearance, T = 4 wk [3, 6] | Appearance, T = 3 d [3, 6] | Appearance, T = 2 wk [3, 7] | Appearance, T = 4 wk [3, 7] | Appearance, T = 3 d [3, 7] | Appearance, T = 2 wk ([3]; 60° C., open dish) | Appearance, T = 4 wk ([3]; 60° C., open dish) | Appearance, T = 3 d ([3]; 60° C., open dish) | Purity, T = 2 wk [3, 6] | Purity, T = 4 wk [3, 6] | Purity, T = 2 wk [3, 7] | Purity, T = 4 wk [3, 7] | Purity, T = 2 wk ([3]; 60° C., open dish) | Purity, T = 4 wk ([3]; 60° C., open dish) | Purity, Control [3] | further results |
| --- | --- | --- | --- | --- | --- | --- | --- | --- | --- | --- | --- | --- | --- | --- | --- | --- | --- | --- | --- | --- | --- |
| CCCN1C[C@H](CSCC(=O)NCCCC[C@@H](NC(=O)CSC[C@@H]2C[C@@H]3c4cccc5[nH]cc(c45)C[C@H]3N(CCC)C2)C(=O)N[C@H]2CSSC[C@@H](C(=O)N[C@H](C(N)=O)[C@@H](C)O)NC(=O)[C@H](CC)NC(=O)[C@H](CCCCN)NC(=O)[C@@H](Cc3c[nH]c4ccccc34)NC(=O)[C@H](Cc3ccc(O)cc3)NC2=O)C[C@@H]2c3cccc4[nH]cc(c34)C[C@H]21 [TBR-760 sulfate, Dop2-D-Lys(Dop2)-cyclo[Cys-Tyr-D-Trp-Lys-Abu-Cys]-Thr-NH2] | white | white | white | more resistant to degradation than TBR-760 acetate | White | White | White | White | White | White | White | White | White | 97.34 | 97.75 | 97.08 | 97.3 | 93.7 | 92.01 | 98.04 | TGA start of decomposition ([1]; listed as sulfate salt): about 234 °C; Purity, UV-exposed ([2]; listed as Sulphate): 96.24; Purity, Control ([2]; listed as Sulphate): 98.04; Purity, Dark Ctrl-UV ([2]; listed as Sulphate): 98.17; Purity, Dark Crtl-Light ([2]; listed as Sulphate): 98.19; Purity, Light-exposed [2, 4]: 94.82; Appearance, UV-exposed [2]: white to off-white; Appearance, UV-exposed ([2]; listed as Sulphate): off-white; Appearance, Light-exposed [2, 5]: no visible discoloration; Appearance, Light-exposed [2, 4]: white; Appearance, Control [3]: White; additional degradants in chromatogram versus control ([3]; two weeks at 60° C., open dish, UPLC, listed as sulfate salt): more than 10 |
| CCCN1C[C@H](CSCC(=O)NCCCC[C@@H](NC(=O)CSC[C@@H]2C[C@@H]3c4cccc5[nH]cc(c45)C[C@H]3N(CCC)C2)C(=O)N[C@H]2CSSC[C@@H](C(=O)N[C@H](C(N)=O)[C@@H](C)O)NC(=O)[C@H](CC)NC(=O)[C@H](CCCCN)NC(=O)[C@@H](Cc3c[nH]c4ccccc34)NC(=O)[C@H](Cc3ccc(O)cc3)NC2=O)C[C@@H]2c3cccc4[nH]cc(c34)C[C@H]21 [TBR-760 tosylate, Dop2-D-Lys(Dop2)-cyclo[Cys-Tyr-D-Trp-Lys-Abu-Cys]-Thr-NH2] | white | white | white | more resistant to degradation than TBR-760 acetate | White | White | White | White | White | White | White | White | White | 98.01 | 97.39 | 97.57 | 96.93 | 96.86 | 96.52 | 98.39 | TGA start of decomposition ([1]; listed as tosylate salt): ~252 °C; Purity, UV-exposed [2]: 95.67; Purity, Control [2]: 98.39; Purity, Dark Ctrl-UV [2]: 98.27; Purity, Dark Crtl-Light [2]: 98.27; Purity, Light-exposed [2, 5]: 96.3; Appearance, UV-exposed ([2]; listed as Tosylate): off-white; Appearance, UV-exposed ([2]; listed as tosylate): white to off-white; stability following light exposure, in words [2, 5]: significantly more stable than the TBR-760 acetate salt; Appearance, Light-exposed ([2]; visible light 1.2 million lux hours, listed as Tosylate): off-white; Appearance, Light-exposed ([2]; visible light 1.2 million lux hours, listed as tosylate): white to off-white; Appearance, Control [3]: White |
